Reference: publication PMC3458734, “Partial thioamide scan on the lipopeptaibiotic trichogin GA IV. Effects on folding and bioactivity” (Beilstein Journal of Organic Chemistry, 2012)

Key:
[1] = test system: Staphylococcus aureus ATCC 25923; assay: Antibacterial activity, disk diffusion Bauer-Kirby method; assay type: cell-based; details: Müller-Hinton medium pH 7.2-7.4
Method: (§1) The antimicrobial activities were assessed on a large set of Gram-positive and Gram-negative bacterial strains. […] Peptide antibacterial activity was tested against Gram-positive and Gram-negative bacteria by the standardized disk diffusion Bauer-Kirby method using the Müller-Hinton culture medium at pH 7.2-7.4 as recommended by the National Committee for Clinical Laboratory Standards. The antibacterial activity assay was performed in a similar way to that described in reference. The activity of peptides was tested against clinical isolates of bacteria and reference bacterial strains: Staphylococcus aureus American Type Culture Collection strains (ATCC) 25923, Streptococcus pyogenes ATCC 19615, Escherichia coli ATCC 25922, Pseudomonas aeruginosa ATCC 27853, Klebsiella pneumoniae ATCC 13883, Salmonella entereditis 13076, and Proteus mirabilis ATCC 10975. The well-known antibiotics bacitracin and tetracyclin (10 μg/disk) were used as controls.

[2] = test system: Streptococcus pyogenes ATCC 19615; assay: as above; assay type: cell-based; details: Müller-Hinton medium pH 7.2-7.4
Method: as §1

[Leu^11-OMe] trichogin GA IV
antimicrobial activity on Staphylococcus aureus [1]: active | antimicrobial activity on Streptococcus pyrogenes [2]: active
